This passage reports Ki results from ChEMBL document CHEMBL2429841, “Effect of incorporating a thiophene tail in the scaffold of acetazolamide on the inhibition of human carbonic anhydrase isoforms I, II, IX and XII” (Bioorg Med Chem Lett, 2013).

One experiment addresses Carbonic anhydrase 12 (Homo sapiens, UniProt O43570).
A further experiment addresses Carbonic anhydrase 9 (Homo sapiens, UniProt Q16790). As to the kind of experiment: Inhibition of human carbonic anhydrase-9 by stopped flow CO2 hydrase assay.

pKi: −log10 of the molar value.

Carbonic anhydrase 12, sequence (O43570 whole entry): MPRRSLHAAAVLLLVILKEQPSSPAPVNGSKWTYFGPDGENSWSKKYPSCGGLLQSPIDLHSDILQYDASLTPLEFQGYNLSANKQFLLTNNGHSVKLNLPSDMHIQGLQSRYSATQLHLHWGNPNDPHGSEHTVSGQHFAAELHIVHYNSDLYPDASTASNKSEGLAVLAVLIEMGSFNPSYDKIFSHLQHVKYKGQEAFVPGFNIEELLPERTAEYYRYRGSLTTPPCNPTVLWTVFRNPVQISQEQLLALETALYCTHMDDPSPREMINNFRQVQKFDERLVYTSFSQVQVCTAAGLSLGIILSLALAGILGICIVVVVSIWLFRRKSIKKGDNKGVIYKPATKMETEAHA
Description for Carbonic anhydrase 12: Inhibition of human carbonic anhydrase-12 by stopped flow CO2 hydrase assay

One may read the pKi as the Ki on a negative log10 scale, so that one unit is a factor of ten. Regarding `NS(=O)(=O)c1ccc(NC(=O)Cc2ccccc2)cc1`, the pKi at Carbonic anhydrase 12 is 7.15; at Carbonic anhydrase 9 it was 7.08.
Regarding `CCC[C@H](C(=O)Nc1ccc(S(N)(=O)=O)cc1)C(C)(C)C`, the pKi at Carbonic anhydrase 12 was 7.11; at Carbonic anhydrase 9, 7.02.
Turning to `NS(=O)(=O)c1ccc(NC(=O)Cc2cccs2)cc1`, the pKi at Carbonic anhydrase 12 was 7.68; at Carbonic anhydrase 9 it was 7.72.
